Entries after “also recorded” stand apart in the source; their conditions may differ.
Key:
Assay type in all cases: cell-based, human
HMOX1 [1] = assay: HMOX1 protein expression by immunofluorescence (primary screen, high-content imaging); conditions: NHLF cells
Method: NHLF cells were grown to 80% confluency and harvested by washing once with HEPES and then trypsinizing. Equal numbers ([…]) of NHLF cells were plated in 384 well optilux tissue culture (BD) plates. Cells were incubated overnight in FGM-2 medium prior to exposure to compound. Cells were treated with either DMSO or compound for 16 h. Cells were wash 2× with 1×PBS and fix with 4% Paraformaldyhyde for 15 min. The fixed cells were then permeablized with 0.1% Triton X-100 and blocked with 5% BSA in 1× PBS 0.05% Tween-20 for 15 min. HO-1 antibody (abcam) was used for immunostaining at 1:300 dilution in 1% BSA in 1×PBS for 1 hr. Cells were washed 2× with 1×PBS and secondary antibody goat anti-mouse Alexa 488 1:400 dilution (Invitrogen); Hoechst 1:2000 (Invitrogen) in 1% BSA in 1×PBS for 1 hr. The plate was washed 5× with 1×PBS and read at Hoechst Excitation (“Ex.”) 360 Emission (“Em.”) 535; Alexa 488 Ex. 480 Em. 535 using GE InCell 1000. Results were analyzed using GE InCell Analyzer software and represented as the fold change above DMSO treated cells.
A rapid, quantitative screening assay to detect HMOX1 levels in cells based on an immunofluorescent microscopy using an automated high-content imaging system was developed. […] The data are arrayed as in an IR chart with a calculated mean value for the plate and the 3-sigma upper and lower-confidence limits (UCL and LCL). […]

HMOX1 [2] = assay: mRNA expression (Quantigene Plex) in NHLF cells: HMOX1; conditions: Table 5, 6 h, mRNA normalized to GAPDH, above DMSO treated cells
Method: (§1) Secondary growth of NHLF cells were used for all assays. Cell were thawed and then placed into culture in T225 flasks. The cells were grown to 80% confluency and harvested by washing once with HEPES buffered saline solution and then trypsinizing. Equal numbers (7×10^3 cells per well) of NHLF cells were plated in 96 well tissue culture plates (Corning). Cells were incubated overnight in FGM-2 medium prior to exposure to compound. Cells were treated with either DMSO or a compound as described below for 6 h. Preparation of cell lysates was carried out according to instructions using the Quantigene Reagent system 2.0 protocol (Panomics). mRNA induction was detected from cell lysate using the Quantigene Plex 2.0 Assay Kit (Panomics) on the Luminex platform (BIO-RAD). Expression of GAPDH mRNA was used as the internal control for the Quantigen Plex 2.0 Assay. The data in Tables 5 and 6 represents the fold change of target mRNA expression, normalized to control values, above DMSO treated cells.

NQO1 = assay: mRNA expression (Quantigene Plex) in NHLF cells: NQO1; conditions: Table 5, 6 h, mRNA normalized to GAPDH, above DMSO treated cells
Method: as §1

TXNRD1 = assay: mRNA expression (Quantigene Plex) in NHLF cells: TXNRD1; conditions: Table 5, 6 h, mRNA normalized to GAPDH, above DMSO treated cells
Method: as §1

GADD45A = assay: mRNA expression (Quantigene Plex) in NHLF cells: GADD45A; conditions: Table 5, 6 h, mRNA normalized to GAPDH, above DMSO treated cells
Method: as §1

Nrf2 = assay: HMOX1 mRNA induction after Nrf2 siRNA silencing; conditions: NHLF cells, 50 nM siRNA 48 hours, FIG. 5
Method: Small interfering RNA targeting Nrf-2 (cat# SI03246614) or KEAP-1 (cat# SI03246439) were obtained from Qiagen at 20 nmol/tube. Negative control siRNA (cat#1027280) was also obtained from Qiagen. Lyophilized siRNA in each tube was resuspended with 1 ml of the provided siRNA Suspension Buffer to make a stock solution of 20 μM and tubes were heated at 90° C. for one minute and then at 37° C. for one hour prior to initial use.
Normal human lung fibroblasts were plated at 5000 cells/well in 96-well plates and allowed to attach. Prior to experiments, well s containing the cells were refreshed with 30 μl of complete growth medium. For each siRNA type, a 4× concentration (200 nM) of siRNA was prepared by adding 11 μl of siRNA stock into 1.1 ml of serum-free medium containing 9 μl/ml of SILENTFECT Lipid Reagent (BioRad, cat#170-3361). This solution was incubated at room temperature for 20 minutes prior to adding 10 μl into each well for a final concentration of 50 nM siRNA. Cells were incubated with siRNA for 48 hours, after which they were treated with compound for either 5 hours (QuantiGene RNA assay) or 15 hours (protein immunofluorescence assay).
The predicted response profile is that silencing of Nrf2 should reduce the amount of HMOX1 induction by Compound 13 and other HMOX1 inducers that are electrophiles or reactive compounds. To that end, Compound 13 and other tool compounds were tested in cells that were treated with siRNA directed to Nrf2. Following gene silencing with specific siRNA or control siRNA, the ability of tool compounds to induce HMOX1 mRNA was determined.

EC50 (HMOX1 [1]; Homo sapiens, immunofluorescence, dose response, FIG. 2, read-out: effective potency (HMOX1 induction)): < 1000 nM | HMOX1 (fold induction) (HMOX1 [2]): 25 fold induction | NQO1 (fold induction) (NQO1): shown to induce | NQO1 (fold induction) (NQO1; listed as #13): 2.2 fold induction | TXNRD1 (fold induction) (TXNRD1): shown to induce | TXNRD1 (fold induction) (TXNRD1; listed as #13): 1.5 fold induction | GADD45A (fold induction) (GADD45A): 0.89 fold induction
SMILES: O=C(Nc1ccc2cn[nH]c2c1)c1ccc2[nH]c(Nc3nc4ccccc4s3)nc2c1 [Compound 13, 2-(Benzothiazol-2-ylamino)-1H-benzoimidazole-5-carboxylic acid (1H-indazol-6-yl)-amide]
averaged signal intensity for HMOX1 staining versus upper confidence limit (UCL) (HMOX1 [1]; primary screen, FIG. 1): significantly greater than the upper confidence limit | HMOX1 mRNA induction with siRNA directed to Nrf2 (Nrf2): affected by the presence of the siRNA for Nrf2; also recorded: requires Nrf2 for full induction of HMOX1 mRNA
